Measured values as given in ChEMBL document CHEMBL3227976, “Synthesis of steroidal nitrosoureas with antitumor activity” (1979).

Legend:
Assay type in all cases: functional
Settings in all cases: Rattus norvegicus, 13762, sc; route subcutaneous; read-out: TGI
13762 [1] = test: Antitumor activity against rat 13762 cells allografted in Fischer/344 rat assessed as tumor growth inhibition at 40 mg/kg/day, sc for 10 days followed by double the dose every 2 days from day 11 to day 19 relative to vehicle-treated control
13762 [2] = test: Antitumor activity against rat 13762 cells allografted in Fischer/344 rat assessed as tumor growth inhibition at 10 mg/kg/day, sc for 10 days followed by double the dose every 2 days from day 11 to day 19 relative to vehicle-treated control
13762 [3] = test: Antitumor activity against rat 13762 cells allografted in Fischer/344 rat assessed as tumor growth inhibition at 2 mg/kg/day, sc for 10 days followed by double the dose every 2 days from day 11 to day 19 relative to vehicle-treated control

For C[C@]12CC[C@@H]3c4ccc(O)cc4CC[C@H]3[C@@H]1CC[C@@]2(O)CNC(=O)N(CCCl)N=O, the inhibition in vivo at 40 mg/kg/day 13762 [1] was 85%, the inhibition in vivo at 10 mg/kg/day 13762 [2] was 35% and the inhibition in vivo at 2 mg/kg/day 13762 [3] was 0%.
CN(N=O)C(=O)NC[C@]1(O)CC[C@H]2[C@@H]3CCc4cc(O)ccc4[C@H]3CC[C@@]21C was tested, and the inhibition in vivo at 40 mg/kg/day 13762 [1] was 23%, the inhibition in vivo at 10 mg/kg/day 13762 [2] was 10% and the inhibition in vivo at 2 mg/kg/day 13762 [3] was 0%.
Compound C[C@]12CC[C@@H]3c4ccc(O)cc4CC[C@H]3[C@@H]1CC[C@@H]2NC(=O)N(CCCl)N=O has an inhibition in vivo at 40 mg/kg/day 13762 [1] of 100%, an inhibition in vivo at 10 mg/kg/day 13762 [2] of 50% and an inhibition in vivo at 2 mg/kg/day 13762 [3] of 0%.
Compound CN(N=O)C(=O)N[C@H]1CC[C@H]2[C@@H]3CCc4cc(O)ccc4[C@H]3CC[C@]12C has an inhibition in vivo at 40 mg/kg/day 13762 [1] of 15%, an inhibition in vivo at 10 mg/kg/day 13762 [2] of 15% and an inhibition in vivo at 2 mg/kg/day 13762 [3] of 4%.
In the case of O=NN(CCCl)C(=O)NC1CCCCC1 [LOMUSTINE], the inhibition in vivo at 10 mg/kg/day 13762 [2] is reported as 80%.
